Laboratory results as given in patent US20150072391A1, “ETHANOL PRODUCTION IN ENGINEERED YEAST” (Massachusetts Institute of Technology, priority 2013, published 2015).
Read-outs that look alike come from different tables or passages of the source.

Key:
strain FY4/5 (S288C) = type: cell-based, Saccharomyces cerevisiae
S288C = details: YP diluted to 20%
Description: (§1) To explore how ionic composition of the culture medium affects ethanol performance, chemically defined conditions were necessary which precluded, in some instances, the use of rich formulas such as yeast extract-peptone-dextrose (YEPD) medium or those containing corn steep liquor. […] After the addition of a carbon source and any ionic supplements, all medium were adjusted to pH 3.8 (i.e., the equilibrium pH from the addition of 50 mM K—Pi to 1×YSC), if necessary, using KOH, typically requiring <400 μM. Cultures were incubated at 30° C.: flask cultures (>25 mL) were agitated on a platform shaker at 200 RPM and smaller cultures in glass tubes on a roller drum at the maximum rotational setting.

Strain BY4743 = assay: Intracellular pH by ratiometric pHluorin after ethanol shock; type: cell-based, Saccharomyces cerevisiae; details: for counteraction of the ethanol-mediated pH drop: supplementation of medium
Description: Strain BY4743 (WT) was transformed with p416TEF-pHluorin and grown overnight in 1×YSC-URA containing 200 g/L glucose and any indicated supplements. Equal amounts of yeast biomass were washed and transferred into respective fresh medium containing the indicated concentrations of ethanol, incubated at room temperature for 30 min, and measured for fluorescence emission. The ratio of intensities emitted from excitation at 395 nm and 475 nm ([…]) is directly proportional to pH.
To assess pHi, fluorescence intensities from strains carrying a centromeric plasmid expressing ratiometric pHluorin (LAMy178) or empty vector (LAMy96) were measured in a Tecan Safire^2™ microplate reader using excitation wavelengths of 395 nm and 475 nm, and common emission wavelength of 508 nm. Samples, all normalized for cell density, of 140 μL were aliquoted in duplicate to a 96-well black-walled, clear-bottom plate (Costar #3631), and the readings of the replicates averaged. Autofluorescence was removed by subtracting measurements of LAMy96 from LAMy178, both treated under identical conditions. The ratio of the intensities emitted by excitation at 395 nm to that by excitation at 475 nm is directly proportional to pHi; ratios in the 0.5-1.2 range roughly correspond to pH values of ˜5.5-7 (Orij, R., et al. Microbiology (Reading, Engl) 155, 268-278 (2009)).

[1] = tested on: laboratory strain (S288C); type: cell-based, Saccharomyces cerevisiae; details: for effect on ethanol output among additives screened: additives to 1×YSC, 300 g/L glucose (FIG. 7)
Description: as §1
(§2) Pre-fermentation cultures were grown until saturation and their cell densities determined by absorbance at 600 nm of an appropriate dilution made using fresh medium. Equalized quantities of biomass (e.g., ≧200 OD600 units) were harvested by centrifugation and re-suspended in ˜10 mL of fermentation medium to yield a cell density of OD600≧20. In addition to the target high sugar concentration (e.g., 300 g/L glucose), the fermentation medium optionally contained the supplements under study (e.g., 50 mM K—Pi) and were the first time cells were exposed to modified ionic conditions.
(§3) Fermentations were conducted micro-aerobically: tube-based cultures had at least an equal volume of headspace and were capped snugly with snap-on plastic tops but not sealed with Parafilm. Samples were taken every ˜24 h over the course of 1-4 d; for simplicity, however, several figures display bar graphs of steady state or near steady state ethanol titers (e.g., FIGS. 5A-D). Typically, 16-20 μL were removed and diluted appropriately for measurement of cell density at OD600, another 20 μL for quantification of cell viability by methylene blue staining (see below), and a final 0.5 mL pelleted and the supernatant saved for determination of ethanol concentration.
Ethanol concentrations were determined using one of the following two methods; for consistency, however, all samples deriving from a single experiment were assayed exclusively using one method. […] Absorbances of NADH at 340 nm were blanked against a reaction with ddH2O, measured using an Ultrospec 2100 pro UV/Visible spectrophotometer (GE Healthcare Life Sciences), and normalized against the absorbance of the control solution (“bottle 4”) to determine ethanol concentrations.
To determine final concentrations, peak areas auto-determined by the Agilent Chemstation for LC software were interpolated off a standard curve consisting of 0-20% ethanol (by volume) prepared in 1×YSC medium.
Images were recorded using a SPOT Insight 2 MP Firewire color camera with SPOT 5.0 software, and analyzed offline.
For each image, the number of unstained (clear) cells was quantified along with the total number (clear+stained) of cells, and the fraction of live cells determined by taking the quotient of the two. Fractions of viable cells were determined for 3-4 images per sample and used to calculate error statistics for the technical replicates (e.g., FIGS. 2A, 2B, 8A). Mean OD600 absorbance values were multiplied by their respective mean viable fractions to arrive at the underlying viable population in OD600 units (e.g., FIG. 1B, 3B).
To calculate ethanol productivities per viable cell, rates of increase in ethanol titer were normalized by the average viable OD600 during the corresponding period (FIG. 1A): […]

H131-A3-AL^CS = assay: High cell density xylose fermentation; type: cell-based, Saccharomyces cerevisiae; details: K—Pi supplementation, 100 g/L xylose
Description: Furthermore, altering the medium to augment membrane gradients enhanced ethanol production not only from glucose, but from xylose, an abundant carbon source from lignocellulosic feedstocks that cannot be metabolized by unmodified S. cerevisiae^23. Therefore K—Pi supplementation was tested on H131-A3-AL^CS, a strain incorporating the Piromyces XYLA isomerase and P. stipitis XYL3 xylulokinase, and optimized to consume xylose^24. In high cell density, high xylose-only (100 g/L) fermentations, increases of ˜70% in both ethanol titer and productivity were found (FIG. 5D). […]
To build yeast biomass and osmotically adapt cells for high cell density and high sugar fermentations, starter cultures consisting of the unmodified base medium (i.e., 1×YSC or YSC-URA) and ˜0.3× the target fermentation sugar concentration (e.g., 100 g/L glucose) were grown until saturation, pelleted by centrifugation, and the entire cell mass used to inoculate a second “pre-fermentation” culture containing ˜0.5-0.6× the target sugar concentration (e.g., 150 g/L glucose). Pre-fermentation cultures were grown until saturation and their cell densities determined by absorbance at 600 nm of an appropriate dilution made using fresh medium. Equalized quantities of biomass (e.g., ≧200 OD600 units) were harvested by centrifugation and re-suspended in ˜10 mL of fermentation medium to yield a cell density of OD600≧20. […]

[2] = tested on: S288C, PE-2, Ethanol Red, Kyokai 7; assay: Glucose fermentation of laboratory and industrial yeast strains; type: cell-based, Saccharomyces cerevisiae; details: K—Pi supplementation, laboratory prototroph and auxotroph and industrial strains
Description: as §2, §3

yeast = assay: Fermentation in synthetic media with cellulosic hydrolysate inhibitors; type: cell-based
Description: To determine whether elevated K^+ and pH can overcome the toxicity in acid hydrolysates of cellulosic biomass, fermentation experiments were performed using synthetic lab media supplemented with the known major inhibitors (e.g., acetic acid, furfural and hydroxymethylfurfural (HMF)).
All concentrations were then increased by a factor of four to 120 mM (FIG. 23B), far above what has been reported in any hydrolysate. […] Raising K^+ and pH then boosted production by another 54%.

[3] = low viscosity CMC; cited from earlier work
[4] = cited from earlier work; for Specific activity: on PNPC

With `[K+]` [K^+] the resistance to isobutanol (strain FY4/5 (S288C); 5 g/L glucose, K+ supplementation combined with higher pH (5.3 vs. 3.9)) was “capable of enhancing resistance to isobutanol”, the “enhancement of ethanol output” value (S288C; addition of K+, pH 6, SD) was 17±2.5% and the “restoration of ethanol titers” value (S288C; pH 3.7, addition of K+) was 47±2.5%. The ethanol titer (S288C; pH 3.7, addition of K+, SD) was 109 ± 1.8 g/L.

With `CCO` [ethanol] the “effect on intracellular pH” value (Strain BY4743; shocks of increasing ethanol concentration) was “decreased intracellular pH in a dose-dependent fashion”.

In the case of `O=P([O-])(O)O.[K+]` [K—Pi, potassium phosphate monobasic], the “rise in ethanol output” value ([1]; 50 mM K—Pi added to 1×YSC, 300 g/L glucose, initial OD600 20-30, vs unmodified medium) is reported as greater than 50%, the final ethanol titer ([1]; 50 mM K—Pi, 4-day culture, 300 g/L glucose) is reported as roughly 140 g/L and the “effect on ethanol output among additives screened” value [1] is reported as “largest improvement”. The “specific ethanol productivity (rate normalized by mean live population)” value ([1]; elevated K—Pi vs unmodified medium) was “remained unchanged”, the additional yeast biomass ([1]; high K—Pi vs unmodified medium) was roughly 25% and the “survival after ethanol shock” value (strain FY4/5 (S288C); 10-20% ethanol, 300 g/L glucose, 50 mM K—Pi vs unmodified medium) was “survival was indeed enhanced”. The “survival after isobutanol shock” value (strain FY4/5 (S288C); steps of isobutanol, 300 g/L glucose, elevated K—Pi) was “reduced rate of survival”, the “viability after isopropanol shock” value (strain FY4/5 (S288C); steps of isopropanol, 300 g/L glucose, K—Pi supplementation) was “viability was similarly enhanced” and the “increase in ethanol productivity” value (H131-A3-AL^CS) was roughly 70%. For the same molecule, the “increase in ethanol titer” value (H131-A3-AL^CS) was roughly 70%, the “ethanol output titers (near the molar conversion limit)” value [2] was roughly 150 g/L and the “counteraction of the ethanol-mediated pH drop” value (Strain BY4743) was “not capable of counteracting”.

With `[Cl-].[K+]` [KCl, potassium chloride] the “effect on ethanol output among additives screened” value [1] was “largest enhancement within the panel of chloride salts tested”, the “effect on ethanol output and viability during fermentation” value ([1]; varied amount of KCl (10-75 mM) in synthetic medium) was “dose-dependent improvements” and the “viability after isobutanol shock” value (strain FY4/5 (S288C); 5 g/L glucose, additional KCl alone) was “insufficient to improve viability”. The “counteraction of the ethanol-mediated pH drop” value (Strain BY4743) was “not capable of counteracting”.

With `OCc1ccco1` [furfuryl alcohol] the “tolerance by yeast compared to furfural” value (yeast) was “much better tolerated”.

In the case of `O=P([O-])(O)O.[Na+]` [Na—Pi, monosodium phosphate], the “effect on ethanol output among additives screened” value [1] is reported as “improves ethanol titer over NaCl”.

In the case of `O=Cc1ccc(CO)o1` [HMF, hydroxymethylfurfural], the “inhibition compared to the unsupplemented control” value (yeast; 120 mM) is reported as 10%.

B1: Cellulamonas fimi Eng (cenA): endoglucanase expressed in S. cerevisiae (protein, UniProt P07984 32-449, looked up)
Endoglucanase A: APGCRVDYAVTNQWPGGFGANVTITNLGDPVSSWKLDWTYTAGQRIQQLWNGTASTNGGQVSVTSLPWNGSIPTGGTASFGFNGSWAGSNPTPASFSLNGTTCTGTVPTTSPTPTPTPTTPTPTPTPTPTPTPTVTPQPTSGFYVDPTTQGYRAWQAASGTDKALLEKIALTPQAYWVGNWADASHAQAEVADYTGRAVAAGKTPMLVVYAIPGRDCGSHSGGGVSESEYARWVDTVAQGIKGNPIVILEPDALAQLGDCSGQGDRVGFLKYAAKSLTLKGARVYIDAGHAKWLSVDTPVNRLNQVGFEYAVGFALNTSNYQTTADSKAYGQQISQRLGGKKFVIDTSRNGNGSNGEWCNPRGRALGERPVAVNDGSGLDALLWVKLPGESDGACNGGPAAGQWWQEIALEMARNARW
For B1, the “activity measured per L culture broth” value [3] is given as 293 U/L (low viscosity.

B2: Cellulomonas fimi cex: CBHI group cellulase expressed in S. cerevisiae (protein, UniProt P07986 42-484, looked up)
Exoglucanase/xylanase: ATTLKEAADGAGRDFGFALDPNRLSEAQYKAIADSEFNLVVAENAMKWDATEPSQNSFSFGAGDRVASYAADTGKELYGHTLVWHSQLPDWAKNLNGSAFESAMVNHVTKVADHFEGKVASWDVVNEAFADGDGPPQDSAFQQKLGNGYIETAFRAARAADPTAKLCINDYNVEGINAKSNSLYDLVKDFKARGVPLDCVGFQSHLIVGQVPGDFRQNLQRFADLGVDVRITELDIRMRTPSDATKLATQAADYKKVVQACMQVTRCQGVTVWGITDKYSWVPDVFPGEGAALVWDASYAKKPAYAAVMEAFGASPTPTPTTPTPTPTTPTPTPTSGPAGCQVLWGVNQWNTGFTANVTVKNTSSAPVDGWTLTFSFPSGQQVTQAWSSTVTQSGSAVTVRNAPWNGSIPAGGTAQFGFNGSHTGTNAAPTAFSLNGTPCTVG
For B2, the “activity measured per L culture broth” value ([4]; PNPC) is listed as 8 U/L,, the “activity per dry cell weight” value ([4]; PNPC) is listed as ~1.0 U/g DCW (PNPC) and the Specific activity [4] is listed as 3 U/mg.

B3: Cellulomonas fimi Exg (cex): CBHI group cellulase expressed in S. cerevisiae (protein, UniProt P07986 42-484, looked up)
Exoglucanase/xylanase: B2 Exoglucanase/xylanase
In the case of B3, the “activity measured per L culture broth” value ([4]; PNPC) is given as 45 U/L (PNPC) and the Specific activity [4] is given as 3.6 (PNPC) U/mg.
